Paper PMC5397059, “Design, synthesis and structure-activity relationship study of wollamide B; a new potential anti TB agent” (PLoS ONE, 2017)
In brackets after ≈: the same amount, converted by molar mass. Non-standard residues stand in square brackets, D forms with d. Residues, ends and D or L forms follow the SMILES beside them. *: point of attachment. dPhe(4-Cl) = N[C@H](Cc1ccc(Cl)cc1)C(=O)O; dOrn = NCCC[C@@H](N)C(=O)O; tBu = CC(C)(C)*

How the values were obtained:
[1] = Chemi-Luminescent Nitrogen Detection (CLND) kinetic solubility assay; assay type: physicochemical; conditions: phosphate buffered saline, pH 7.4; kinetic aqueous solubility by CLND; read-out: Solubility
Method: GSK in-house kinetic solubility assay: 5 μL of 10mM DMSO stock solution diluted to 100 uL with pH7.4 phosphate buffered saline, equilibrated for 1 hour at room temperature, filtered through Millipore Multiscreen HTS-PCF filter plates (MSSL BPC).
The filtrate is quantified by suitably calibrated flow injection CLND. The standard error of the CLND solubility determination is ±30 μM, the upper limit of the solubility is 500 μM when working from 10 mM DMSO stock solution.

Chrom logD assay = assay type: physicochemical; conditions: reversed phase HPLC column (Gemini NX C18), pH 7.4; read-out: Log D
Method: The Chromatographic Hydrophobicity Index (CHI) values were measured using a reversed phase HPLC column (50 x 2 mmx 3 μMGemini NX C18, Phenomenex, UK) with fast acetonitrile gradient at starting mobile phase of 100% pH = 7.4 buffer. CHI values are derived directly from the gradient retention times by using a calibration line obtained for standard compounds. The CHI value approximates to the volume % organic concentration when the compound elutes. CHI is linearly transformed into ChromlogD by the formula: ChromlogD=0.0857CHI−2.00
The average error of the assay is ±3 CHI unit or ±0.25 ChromlogD.

[2] = Artificial membrane permeability assay; assay type: in vitro ADME; conditions: PAMPA, pH 7.4; passive artificial membrane permeability; read-out: Permeability
Method: A 8% L-a-phosphatidylcholine (EPC) in 1% cholesterol decane solution and a 1.8% EPC in cholesterol decane solution were prepared. The lipid solution was then aliquoted into 4 mL capped vials, sealed with parafilm and stored in-20°Cfreezer. The lipid solution was then transferred from 4 mL vial into 96-well half area plate (130μL/well) for daily assay usage. An additional 50 mM phosphate buffer with 0.5% encapsin, pH at 7.4 was prepared. The assay was run by the Biomek FX and Biomek software. The assay procedure is written under the Biomek software. For one batch assay, it can test two 96-well sample plates with at least one standard on each sample plate. The total assay time was about 4 hours. 3.5 μL of lipid solution were added to the filler plate, shaken for 12 seconds, and 250 μL of buffer were added to donor side and 100 μL to the receiver side. The assay plate was shaken for 45 min before adding the compounds. The test compounds (2.5 μL) were added to the donor side. The assay was run as replicates: Assay plates1 and 2 tested the sample plate 1; assay plates 3 and 4 tested the sample plate 2. The assay plates were then incubated and shaken for 3 hours at room temperature.
The assay samples were transferred to the HPLC analysis plates and 100 μL of receiver solution were aspirated and transferred to the receiver for analysis. Similarly, another 100 μL from the donor solution were transferred to the donor analysis plate.
Compound concentration was measured by HPLC at different time-points and permeability was established as nm/sec.

human serum albumin = human serum albumin (Homo sapiens, UniProt P02768); assay: Human serum albumin (HSA) binding assay; assay type: in vitro ADME; conditions: human serum albumin binding
Method: HSA binding assay was performed according to the method described by Valko K, et al. The basic principle of the measurements is the determination of gradient retention times of compounds on immobilized HSA column and converting these retention times to the appropriate property values using calibration. The peaks are detected and identified by UV. Calibration sets of compounds are measured before each run for which the HSA binding values are known. The retention times of the calibration set of compounds are plotted against these known values. The slope and the intercept of the obtained straight lines are used to calculate the HSA binding for the unknown compounds.

[3] = Intrinsic clearance (CLint) assay, mouse liver microsomes; assay type: in vitro ADME; conditions: for % LBF Mouse: liver blood flow; for CLint Mouse: mouse liver microsomes; for half-life at 0.5 µM: mouse, pooled mouse liver microsomes, pH 7.4, read-out: Microsomal t1/2 Mouse; for CLpred Mouse: predicted metabolic clearance
Method: (§1) Pooled mouse and human liver microsomes are purchased from Xenotech. Microsomes (final protein concentration 0.5 mg/mL, MgCl2 (final concentration = 5 mM) and test compound (final substrate concentration = 0.5] M; final DMSO concentration = 0.5%) in 0.1 M phosphate buffer pH 7.4 are pre-incubated at 37°C prior to the addition of NADPH (final concentration = 1 mM) to initiate the reaction. The final incubation volume is 600 μL.
(§2) Control incubation is included for each compound tested where 0.1 M phosphate buffer pH 7.4 is added instead of NADPH (minus NADPH). One control compound is included with each species. All incubations are performed singularly for each test compound. Each compound is incubated for 45 minutes and samples (100 μL) of incubate are taken at 0, 5, 15, 30 and 45 min. The control (minus NADPH) is sampled at 30 min only. The reactions are stopped by the addition of sample to 200 μL Acetonitrile: Methanol 3:1 containing internal standard. The terminated samples are centrifuged at 2,500 rpm for 20 min at 4°C to precipitate the protein. Quantitative analysis: following protein precipitation, the samples were analyzed using specific LC-MS/MS conditions. Data analysis: from a plot of ln peak area ratio (compound peak area/internal standard peak area) against time, the gradient of the line was determined. Subsequently, half-life and intrinsic clearance were calculated using the equations below: Eliminationrateconstant(K)=(−gradient) Halflife(t1/2)(min)=0.693/K Cli(mL/min/gprotien)=V×0.693/t1/2 WhereV=Incubationvolume(mL/gmicrosomalprotien)

[4] = Intrinsic clearance (CLint) assay, human liver microsomes; assay type: in vitro ADME; conditions: for CLint Human: human liver microsomes; for half-life at 0.5 µM: human, pooled human liver microsomes, pH 7.4, human liver microsomes, read-out: Microsomal t1/2 Human; for % LBF Human: liver blood flow; for CLpred Human: predicted metabolic clearance
Method: as §1, §2

Mtb H37Rv = conditions: for antimycobacterial activity against Mtb H37Rv: at the maximum dose tested; for MIC against Mtb H37Rv: duplicate, analogues

Chain of human serum albumin (P02768 25-609): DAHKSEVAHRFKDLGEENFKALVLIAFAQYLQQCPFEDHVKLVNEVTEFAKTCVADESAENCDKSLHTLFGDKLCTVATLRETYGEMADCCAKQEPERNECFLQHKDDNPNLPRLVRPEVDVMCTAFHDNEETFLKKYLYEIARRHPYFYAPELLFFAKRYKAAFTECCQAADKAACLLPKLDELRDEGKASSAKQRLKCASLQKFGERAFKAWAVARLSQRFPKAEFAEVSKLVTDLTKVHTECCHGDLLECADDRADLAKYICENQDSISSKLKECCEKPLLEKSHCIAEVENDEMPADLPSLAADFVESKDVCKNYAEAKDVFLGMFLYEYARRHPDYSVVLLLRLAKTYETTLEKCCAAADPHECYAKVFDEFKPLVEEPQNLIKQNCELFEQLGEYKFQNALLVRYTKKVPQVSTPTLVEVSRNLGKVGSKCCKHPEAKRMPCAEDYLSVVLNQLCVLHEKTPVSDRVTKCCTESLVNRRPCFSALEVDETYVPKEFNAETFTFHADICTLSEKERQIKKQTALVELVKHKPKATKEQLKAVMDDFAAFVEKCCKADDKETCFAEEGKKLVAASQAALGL

SMILES | solubility kinetic at 1 h [1] | chromatographic logD (Chrom logD assay) | Papp at 3 h [2] | % HSA (human serum albumin) | % LBF Mouse [3] | CLint Mouse [3] | half-life at 0.5 µM [3] | CLpred Mouse [3] | CLint Human [4] | half-life at 0.5 µM [4] | % LBF Human [4] | CLpred Human [4] | antimycobacterial activity against Mtb H37Rv (Mtb H37Rv) | MIC against Mtb H37Rv (Mtb H37Rv)
CC[C@H](C)[C@@H]1NC(=O)[C@H](CC(C)C)NC(=O)[C@H](Cc2c[nH]c3ccccc23)NC(=O)[C@@H](CCCN)NC(=O)[C@H](CC(N)=O)NC(=O)[C@H](C(C)C)NC1=O [Compound 20c] (cyclo(IVN[dOrn]WL)) | ≥ 195 µg/mL | 1.83 | < 0.3 ×10⁻⁶ cm/s | 83.67% | <16.3% | <0.48 mL/min/g tissue | > 2.31 h | <20.50 mL/min/kg | <0.40 mL/min/g tissue | > 2.31 h | <35.08% | <6.35 mL/min/kg | completely abolished the activity | >80 µM
CC[C@H](C)[C@@H]1NC(=O)[C@@H](Cc2ccc(Cl)cc2)NC(=O)[C@H](CC(C)C)NC(=O)[C@H](Cc2c[nH]c3ccccc23)NC(=O)[C@@H](CCCN)NC(=O)[C@@H](CCCN)NC1=O [Compound 18c] (cyclo(I[dOrn][dOrn]WL[dPhe(4-Cl)])) | 7 µg/mL (≈ 8.51 µM) |  | 8 ×10⁻⁶ cm/s | 98.70% | 28.4% | 0.98 mL/min/g tissue | 1.13 h | 35.80 mL/min/kg | 1.06 mL/min/g tissue | 0.862 h | 59.15% | 10.65 mL/min/kg |  | 17.5 µM (≈ 14.4 µg/mL)
CC[C@H](C)[C@@H]1NC(=O)[C@H](Cc2c[nH]c3ccccc23)NC(=O)[C@@H](CCCN)NC(=O)[C@H](CC(N)=O)NC(=O)[C@H](C(C)C)NC(=O)[C@@H](CC(C)C)NC1=O [Compound 19c] (cyclo(I[dL]VN[dOrn]W)) | ≥ 183 µg/mL | 1.73 | < 1 ×10⁻⁶ cm/s | 67.10% | <16.3% | <0.48 mL/min/g tissue | > 2.31 h | <20.50 mL/min/kg | <0.40 mL/min/g tissue | > 2.31 h | <35.08% | <6.35 mL/min/kg |  | 7.5 µM (≈ 5.55 µg/mL)
CC[C@H](C)[C@@H]1NC(=O)[C@H]([C@@H](C)CC)NC(=O)[C@@H](CC(C)C)NC(=O)[C@H](CC(C)C)NC(=O)[C@H](Cc2c[nH]c3ccccc23)NC(=O)[C@@H](CCCN)NC1=O [Compound 12c] (cyclo(II[dOrn]WL[dL])) | ≥ 206 µg/mL | 2.94 | 1.9 ×10⁻⁶ cm/s | 96.06% | <16.39% | <0.48 mL/min/g tissue | > 2.31 h | <20.50 mL/min/kg | 5.93 mL/min/g tissue | 0.155 h | 88.98% | 16.02 mL/min/kg |  | 3.1 µM (≈ 2.33 µg/mL)
CSCC[C@@H]1NC(=O)[C@@H](CC(C)C)NC(=O)[C@H](CC(C)C)NC(=O)[C@H](Cc2c[nH]c3ccccc23)NC(=O)[C@@H](CCCN)NC(=O)[C@H](CC(N)=O)NC1=O [Compound 8c] (cyclo(L[dL]MN[dOrn]W)) | ≥ 164 µg/mL | 1.78 | < 1 ×10⁻⁶ cm/s | 73.79% | <16.30% | <0.48 mL/min/g tissue | > 2.31 h |  | 1.79 mL/min/g tissue | 0.511 h | 70.90% | 12.76 mL/min/kg | complete loss of activity | >80 µM
CC(C)C[C@H]1NC(=O)[C@@H](Cc2ccc(Cl)cc2)NC(=O)[C@H](Cc2c[nH]c3ccccc23)NC(=O)[C@@H](CCCN)NC(=O)[C@H](CC(N)=O)NC(=O)[C@H](C(C)C)NC1=O [Compound 17c] (cyclo(N[dOrn]W[dPhe(4-Cl)][dL]V)) | ≥ 230 µg/mL | 2.12 | 1.7 ×10⁻⁶ cm/s | 93.83% | 17.9% | 0.54 mL/min/g tissue | 2.06 h | 22.60 mL/min/kg | <0.40 mL/min/g tissue | > 2.31 h | <35.08% | <6.35 mL/min/kg |  | 30 µM (≈ 24.3 µg/mL)
CC[C@H](C)[C@@H]1NC(=O)[C@@H](CC(C)C)NC(=O)[C@H](CC(C)C)NC(=O)[C@H](Cc2c[nH]c3ccccc23)NC(=O)[C@@H](CCCN)NC(=O)[C@H](COC(C)(C)C)NC1=O [Compound 11c] (cyclo(IS(tBu)[dOrn]WL[dL])) | 202 µg/mL (≈ 258 µM) | 3 | < 0.3 ×10⁻⁶ cm/s | 92.68% | <16.3% | <0.48 mL/min/g tissue | > 2.31 h | <20.50 mL/min/kg | 3.33 mL/min/g tissue | 0.276 h | 81.90% | 14.70 mL/min/kg |  | 
CC[C@H](C)[C@@H]1NC(=O)[C@@H](CC(C)C)NC(=O)[C@H](CC(C)C)NC(=O)[C@H](Cc2c[nH]c3ccccc23)NC(=O)[C@@H](CCCN)NC(=O)[C@H](CO)NC1=O [Compound 10c] (cyclo(IS[dOrn]WL[dL])) | ≥ 228 µg/mL | 2.16 | < 1 ×10⁻⁶ cm/s | 86.47% | <16.3% | <0.48 mL/min/g tissue | > 2.31 h | <20.50 mL/min/kg | 9.77 mL/min/g tissue | 0.0938 h | 93.00% | 16.70 mL/min/kg |  | 
